#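 Results reflect a 48-hour exposure of cells in 96-well plates to compound at five concentrations. GI50 = concentration required for 50% inhibition of growth. The concentration for full growth arrest is given as TGI.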
# Assays:
# Experiment in all cases: DTP human tumour cell line panel, 48 h
# [1] = test system: SK-OV-3 ovarian
# [2] = test system: DU-145 prostate
# [3] = test system: T-47D breast
# [4] = test system: HOP-62 NSCLC
# [5] = test system: UACC-62 melanoma
# [6] = test system: SW-620 colon
# [7] = test system: NCI-H522 lung
# [8] = test system: U251 CNS
# [9] = test system: M14 melanoma
# [10] = test system: KM12 colon
# [11] = test system: PC-3 prostate
# [12] = test system: SN12C renal
# [13] = test system: OVCAR-4 ovarian
# [14] = test system: COLO 205 colon
# [15] = test system: CAKI-1 renal
# [16] = test system: OVCAR-3 ovarian
# [17] = test system: SNB-19 CNS
# [18] = test system: SR leukemia
# [19] = test system: HL-60(TB) leukemia
# [20] = test system: NCI/ADR-RES ovarian
# [21] = test system: SK-MEL-28 melanoma
# [22] = test system: BT-549 breast
# [23] = test system: RPMI-8226 leukemia
# [24] = test system: SF-295 CNS
# [25] = test system: NCI-H226 lung
# [26] = test system: IGROV1 ovarian
# [27] = test system: A549 NSCLC
# [28] = test system: MOLT-4 leukemia
# [29] = test system: ACHN renal
# [30] = test system: 786-0 renal
# [31] = test system: EKVX NSCLC
# [32] = test system: A498 renal
# [33] = test system: HCT-116 colon
# [34] = test system: SNB-75 CNS
# [35] = test system: NCI-H23 lung
# [36] = test system: HS 578T breast
# [37] = test system: UACC-257 melanoma
# [38] = test system: HOP-92 NSCLC
# [39] = test system: HCC-2998 colon
# [40] = test system: NCI-H460 lung
# [41] = test system: SF-268 CNS
# [42] = test system: CCRF-CEM leukemia
# [43] = test system: MCF7 breast
# [44] = test system: MALME-3M melanoma
# [45] = test system: OVCAR-5 ovarian
# [46] = test system: SK-MEL-2 melanoma
# [47] = test system: LOX IMVI melanoma
# [48] = test system: OVCAR-8 ovarian
# [49] = test system: K-562 leukemia
# [50] = test system: MDA-MB-231 breast
# [51] = test system: UO-31 renal
# [52] = test system: SF-539 CNS
# [53] = test system: TK-10 renal
# [54] = test system: MDA-MB-435
# [55] = test system: HCT-15 colon
smiles,measurement,setting,value
O=C1c2ccccc2-c2c1c1ccc([N+](=O)[O-])cc1c(=O)n2CCCN1CCOCC1,GI50,[1],6.57 µM
same,TGI,[1],> 100 µM
same,GI50,[2],84 nM
same,TGI,[2],3.09 µM
same,GI50,[3],97.1 nM
same,TGI,[3],> 100 µM
same,GI50,[4],48.6 nM
same,TGI,[4],346 nM
same,GI50,[5],403 nM
same,TGI,[5],> 100 µM
same,GI50,[6],160 nM
same,TGI,[6],> 100 µM
same,GI50,[7],424 nM
same,TGI,[7],> 100 µM
same,GI50,[8],92.3 nM
same,TGI,[8],15.8 µM
same,GI50,[9],122 nM
same,TGI,[9],495 nM
same,GI50,[10],258 nM
same,TGI,[10],> 100 µM
same,GI50,[11],291 nM
same,TGI,[11],> 100 µM
same,GI50,[12],333 nM
same,TGI,[12],> 100 µM
same,GI50,[13],776 nM
same,TGI,[13],> 48.3 µM
same,GI50,[14],7.92 µM
same,TGI,[14],> 100 µM
same,GI50,[15],232 nM
same,TGI,[15],> 100 µM
same,GI50,[16],12.4 µM
same,TGI,[16],29.9 µM
same,GI50,[17],378 nM
same,TGI,[17],> 52.6 µM
same,GI50,[18],13.9 nM
same,TGI,[18],> 100 µM
same,GI50,[19],147 nM
same,TGI,[19],> 100 µM
same,GI50,[20],293 nM
same,TGI,[20],24.8 µM
same,GI50,[21],> 100 µM
same,TGI,[21],> 100 µM
same,GI50,[22],311 nM
same,TGI,[22],16.7 µM
same,GI50,[23],138 nM
same,TGI,[23],521 nM
same,GI50,[24],182 nM
same,TGI,[24],31.8 µM
same,GI50,[25],> 34.3 µM
same,TGI,[25],> 64.8 µM
same,GI50,[26],238 nM
same,TGI,[26],> 100 µM
same,GI50,[27],9.37 µM
same,TGI,[27],> 100 µM
same,GI50,[28],62.5 nM
same,TGI,[28],> 100 µM
same,GI50,[29],128 nM
same,GI50,[30],135 nM
same,TGI,[30],2320 nM
same,GI50,[31],20.9 µM
same,TGI,[31],> 92.7 µM
same,GI50,[32],> 38.8 µM
same,TGI,[32],> 92.4 µM
same,GI50,[33],85.1 nM
same,TGI,[33],1810 nM
same,GI50,[34],1010 nM
same,TGI,[34],> 100 µM
same,GI50,[35],160 nM
same,GI50,[36],5.97 µM
same,TGI,[36],> 56.7 µM
same,GI50,[37],19.6 µM
same,TGI,[37],> 100 µM
same,TGI,[38],> 41.1 µM
same,GI50,[39],> 41 µM
same,TGI,[39],> 100 µM
same,GI50,[40],193 nM
same,TGI,[40],> 100 µM
same,GI50,[41],114 nM
same,TGI,[41],> 100 µM
same,GI50,[42],22.4 nM
same,TGI,[42],121 nM
same,GI50,[43],< 16.6 nM
same,TGI,[43],> 100 µM
same,GI50,[44],268 nM
same,TGI,[44],24.7 µM
same,GI50,[45],13 µM
same,TGI,[45],> 100 µM
same,GI50,[46],> 61.2 µM
same,TGI,[46],> 100 µM
same,GI50,[47],81.3 nM
same,TGI,[47],338 nM
same,GI50,[48],320 nM
same,TGI,[48],> 100 µM
same,GI50,[49],324 nM
same,TGI,[49],> 100 µM
same,GI50,[50],24.8 µM
same,TGI,[50],> 87.4 µM
same,GI50,[51],195 nM
same,TGI,[51],> 100 µM
same,GI50,[52],119 nM
same,TGI,[52],415 nM
same,GI50,[53],25.2 µM
same,TGI,[53],> 100 µM
same,GI50,[54],867 nM
same,TGI,[54],> 100 µM
same,GI50,[55],396 nM
same,TGI,[55],> 100 µM
